Laboratory results as given in PubChem BioAssay AID651849 (The Scripps Research Institute Molecular Screening Center, 2012).

Target: Photoreceptor-specific nuclear receptor (Homo sapiens) (UniProt Q9Y5X4)
Assay: NR2E3 agonists releasing NCOR corepressor, dose response, cell-based, luminescence, CHO-S two-hybrid, late stage (AID 651849)
Details: CHO-S Gal4-NCOR/VP16-NR2E3 two-hybrid, luciferase

Chain of Photoreceptor-specific nuclear receptor (Homo sapiens) (Q9Y5X4 whole entry, looked up): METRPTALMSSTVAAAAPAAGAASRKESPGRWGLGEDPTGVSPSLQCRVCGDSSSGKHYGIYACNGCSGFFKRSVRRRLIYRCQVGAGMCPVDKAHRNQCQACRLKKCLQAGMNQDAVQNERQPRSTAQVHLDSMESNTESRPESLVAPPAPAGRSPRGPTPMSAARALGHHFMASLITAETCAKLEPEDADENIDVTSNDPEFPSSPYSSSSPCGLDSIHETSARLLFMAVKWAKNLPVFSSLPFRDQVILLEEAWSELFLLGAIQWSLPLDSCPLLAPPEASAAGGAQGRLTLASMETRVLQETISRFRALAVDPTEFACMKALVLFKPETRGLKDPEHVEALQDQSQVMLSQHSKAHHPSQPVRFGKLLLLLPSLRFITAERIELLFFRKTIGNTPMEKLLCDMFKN

| SMILES | IC50 |
| --- | --- |
| COc1cccc(N2CCN(c3nc(-c4ccccc4C)cc(=O)[nH]3)CC2)c1 | 428 nM |
| Cc1cnc(NC(=O)CCCc2nc3ccccc3s2)s1 | 945 nM |
| NC(=O)c1nn(-c2ccccc2)nc1NC(=O)CSc1nnnn1-c1ccc(Cl)cc1 | 1570 nM |
| COc1cc2nc(CN3CC=C(c4ccccc4)CC3)[nH]c(=O)c2cc1OC | 393 nM |
| O=C(CSc1nnnn1-c1ccc(O)cc1)Nc1ccc(N2CCOCC2)c(Cl)c1 | 1250 nM |
| O=C(CSc1nnnn1-c1ccc2c(c1)OCCO2)Nc1nc2c(s1)CCCC2 | 682 nM |
| COc1ccc2c(CC(=O)Nc3ncc(C)s3)coc2c1 | 1920 nM |
| O=C(O)CC1(CC(=O)Nc2cc(C(F)(F)F)cc(C(F)(F)F)c2)CCCCC1 | 4020 nM |
| O=C(Nc1cccc(NC(=O)c2c(F)cccc2F)n1)c1c(F)cccc1F | 7990 nM |
| Cc1cccc(C(=O)N[C@H](C(=O)Nc2ncc(C)s2)C(C)C)c1 | 324 nM |
| Cc1ccc(-c2nc(NC(=O)CSc3nnnn3-c3ccccc3)ns2)cc1 | 404 nM |
| Cc1cc(C)cc(NC(=O)CCc2nc3sc4c(c3c(=O)[nH]2)CCCC4)c1 | 249 nM |
| COc1ccc(S(=O)(=O)N2CCCCC2)cc1NC(=S)Nc1ccccc1 | 2630 nM |
| Cc1cnc(NC(=O)C2CC(=O)N(c3ccc4c(c3)OCCO4)C2)s1 (stereo unspecified) | 7060 nM |
| COc1ccc(OC)c(NC(=O)CSc2nnnn2-c2ccc3c(c2)OCO3)c1 | 301 nM |
| Cc1ccc(CN2CC(C(=O)Nc3ncc(C)s3)CC2=O)cc1 (stereo unspecified) | 516 nM |
| Cc1onc(-c2ccccc2Cl)c1C(=O)Nc1nc2c(s1)CCCC2 | 597 nM |
| COc1cccc(NC(=O)CSc2nc3ncc(Br)cc3[nH]2)c1 | 3570 nM |
| COc1ccc(S(=O)(=O)N2CCCCC2)cc1NC(=S)Nc1cccc(Cl)c1C | 1500 nM |
| COc1ccc(NC2c3ccccc3C(=O)N2Cc2ccccc2Cl)cc1OC (stereo unspecified) | 4840 nM |
| O=c1c(Cl)c(N2CCN(c3ccc(F)cc3)CC2)cnn1C12CC3CC(CC(C3)C1)C2 | 3340 nM |
| Cc1cccc(OCCCC(=O)Nc2nc3ccccc3[nH]2)c1 | 5300 nM |
| Cc1ccc(NC(=O)CSc2nnnn2-c2ccc3c(c2)OCO3)cc1C | 566 nM |
| O=c1cc(N2CCN(c3cccc(Cl)c3)CC2)[nH]c(=O)n1C1CCCCC1 | 72.7 nM |
| Cc1cnc(NC(=O)Cc2ccc(Br)cc2)s1 | 2250 nM |
| Cc1ccnc(NC(=O)CSc2cc(=O)n(C)c3ccccc23)c1 | 1430 nM |
